Reference: patent US11602496B2, “Use of gingerone or derivatives thereof for reducing or delaying the signs of skin ageing” (L'OREAL, priority 2011, dated 2023)
Marks after values point to notes of the source that are not given here.

Test system: filaggrin expression in normal human keratinocytes (NHEKs)
Test: Filaggrin expression in normal human keratinocytes in culture (in situ immunolabelling, fluorescence relative to number of nuclei)
Type: cell-based
Settings: for filaggrin expression, % relative to the control / change in expression of filaggrin by the keratinocytes relative to the control: NHEKs; for filaggrin expression, % relative to the control: 144 hours incubation, n=3, control complete SFM medium = 100; for change in expression of filaggrin by the keratinocytes relative to the control: 144 hours
Description: The in vitro effect of gingerone (compound 1, the chemical formula of which is given above) on keratinocyte differentiation is studied. The expression and the location of the marker of filaggrin differentiation are especially studied in keratinocytes in culture which thus makes it possible to evaluate the capacity of this compound to increase the differentiation of these cells. Normal human keratinocytes (NHEKs) were cultured at 37° C. and 5% CO2 for 24 h in a complete SFM medium until moderate confluence was obtained. A complete SFM medium is an SFM culture medium supplemented with pituitary extract (25 μg/ml), EGF (0.25 ng/ml) and gentamicin (25 μg/ml). […] The keratinocytes were then incubated for 144 hours. The treatments were carried out in triplicate (n=3). At the end of the incubation, the culture medium was removed and the cells were […], fixed, permeabilized then labelled with the primary antibody targeted against the filaggrin protein of interest (in situ immunolabelling). […] At the same time, the nuclei of the cells were stained with Hoechst 33258 (bisbenzimide). Image acquisition was carried out using an INCell AnalyzerTM1000 machine. The labels were quantified by measuring the fluorescence intensity of the proteins relative to the number of nuclei identified by the Hoechst product.

[Ca+2].[Cl-].[Cl-] [CaCl2, calcium chloride, reference compound]
filaggrin expression, % relative to the control (1.5 mM): 158** %
change in expression of filaggrin by the keratinocytes relative to the control (calcium chloride treatment (1.5 mM in Table 1)): +58%

COc1cc(CCC(C)=O)ccc1O [Gingerone]
change in expression of filaggrin by the keratinocytes relative to the control (2 μg/ml): +33%
filaggrin expression, % relative to the control (2 μg/ml): 133* %
change in expression of filaggrin by the keratinocytes relative to the control (20 μg/ml): +51%
filaggrin expression, % relative to the control (20 μg/ml): 151* %
effect on expression of the filaggrin protein (in words) (normal human epidermal keratinocytes): significantly and dose-dependently increases the expression of the filaggrin protein

CC1=C(/C=C/C(C)=C/C=C/C(C)=C/C(=O)O)C(C)(C)CCC1 [Retinoic acid, retinoic acid, reference compound]
filaggrin expression, % relative to the control (10^−7 M): 3** %
change in expression of filaggrin by the keratinocytes relative to the control (retinoic acid treatment (10^−7 M in Table 1)): −97%
